In patent US7109243B2 (IRM LLC, priority 2003, dated 2006):

Tests used:
Cathepsin S = Cathepsin S (Homo sapiens, UniProt P25774); experiment: Cathepsin S inhibition assay (fluorogenic peptide substrate); assay type: biochemical; conditions: Table II, compounds of Formula I; read-out: Ki Cat. S
Description: “Inhibition constant”, Ki, is the dissociation constant of the enzyme-inhibitor complex, or the reciprocal of the binding affinity of the inhibitor to the enzyme. […] The inhibited rates are then fit by nonlinear regression to the following equation: […]
The assumption being made for the classical inhibition described above is that the free inhibitor concentration is equal to the total inhibitor concentration.
Kinetic measurements are performed in a total reaction volume of 30 μl in 384-well microtiter plates. […] The reactions are initiated by adding the substrate, acetyl-histidine-proline-valine-lysine-amino carbamoyl coumarin, to a final concentration of 50 μM. The rate of substrate hydrolysis is measured by monitoring the increase in fluorescence at an excitation wavelength of 380 nm and an emission wavelength of 450 nm that results from cleavage of the aniline bond in the substrate by the enzyme.

Cathepsin K = biological target: T1, Cathepsin K (Homo sapiens, UniProt P43235); experiment: Cathepsin K inhibition assay (fluorogenic peptide substrate); selectivity ratio vs cathepsin S; assay type: biochemical; conditions: ratio of cathepsin K inhibition constant to cathepsin S inhibition constant; Table II
T1 sequence (P43235 115-329): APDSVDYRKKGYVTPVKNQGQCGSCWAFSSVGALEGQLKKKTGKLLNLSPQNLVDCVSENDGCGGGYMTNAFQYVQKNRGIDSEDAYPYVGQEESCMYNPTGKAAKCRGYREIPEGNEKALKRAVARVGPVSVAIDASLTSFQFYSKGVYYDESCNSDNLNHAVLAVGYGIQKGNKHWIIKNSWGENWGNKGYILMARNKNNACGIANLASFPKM
Description: The optimal substrate for cathepsin K, acetyl-lysine-histidine-proline-lysine-amino carbamoyl coumarin, was identified from screening a combinatorial library of fluorogenic peptide substrates (Harris, J. L., B. J. Backes, et al., Proc Natl Acad Sci USA 2000, 97(14), 7754-9). Kinetic measurements are performed in a total reaction volume of 30 μl in 384-well microtiter plates. […] The reactions are initiated by adding the substrate, acetyl-lysine-histidine-proline-lysine-amino carbamoyl coumarin, to a final concentration of 40 μM. The rate of substrate hydrolysis is measured by monitoring the increase in fluorescence at an excitation wavelength of 380 nm and an emission wavelength of 450 nm that results from cleavage of the aniline bond in the substrate by the enzyme. The apparent inhibition constants for the compounds are determined from the enzyme progress curves ([…]. Elrod, et al., Anal Biochem 2000, 286(1), 45-50) and are then used to calculate the inhibition constants for competitive inhibitors. Selectivity for cathepsin S in the presence of cathepsin isozymes was determined by the ratio of the cathepsin isozyme inhibition constant of a compound of the present invention to the cathepsin S inhibition constant of the same compound.

Sequence of Cathepsin S (P25774 115-331, species assumed): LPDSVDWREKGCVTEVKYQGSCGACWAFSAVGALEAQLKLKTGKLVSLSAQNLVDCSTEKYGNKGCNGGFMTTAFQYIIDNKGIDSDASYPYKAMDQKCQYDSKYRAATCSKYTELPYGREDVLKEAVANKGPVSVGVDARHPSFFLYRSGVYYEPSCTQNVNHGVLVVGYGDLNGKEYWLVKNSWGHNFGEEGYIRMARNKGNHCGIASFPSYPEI

Molecule	Ki (Cathepsin S) [µM]	Selectivity for Cat. S over Cat. K (Cathepsin K)
COc1ccc(NCCNC(=O)[C@H](CC2CCOCC2)NC(=O)c2ccc(-c3cccc(C(F)(F)F)c3)o2)cc1 [Compound 5, N-((S)-1-(2-(4-methoxyphenylamino)ethylcarbamoyl)-2-(tetrahydro-2H-pyran-4-yl)ethyl)-5-(3-(trifluoromethyl)phenyl)furan-2-carboxamide]	< 1	+ (+, >10)
COc1ccc(NCCNC(=O)[C@H](Cc2ccc(Oc3cccc(C)c3C)cc2)NC(=O)c2cccc(C)c2)cc1 [Compound 7, (S)-N-{2-[4-(2,3-Dimethyl-phenoxy)-phenyl]-1-[2-(4-methoxy-phenylamino)-ethylcarbamoyl]-ethyl}-3-methyl-benzamide]	< 1	++ (++, >100)
CC(=O)N1CCC(C(=O)N[C@@H](CC2CCCCC2)C(=O)NCCNc2ccc(OC(F)(F)F)cc2)CC1 [Compound 14, 1-Acetyl-piperidine-4-carboxylic acid (S)-{2-cyclohexyl-1-[2-(4-trifluoromethoxy-phenylamino)-ethylcarbamoyl]-ethyl}-amide]	< 1	++ (++, >100)
CC(=O)N1CCN(c2ccc(OCC(=O)N[C@@H](CC3CCCCC3)C(=O)NCCNc3ccc(OC(F)(F)F)cc3)cc2)CC1 [Compound 15, (S)-2-{2-[4-(4-Acetyl-piperazin-1-yl)-phenoxy]-acetylamino}-3-cyclohexyl-N-[2-(4-trifluoromethoxy-phenylamino)-ethyl]-propionamide]	< 1	+ (+, >10)
COc1ccc(NCCNC(=O)[C@H](Cc2ccccc2)NC(=O)c2cccc(C)c2Cl)cc1 [Compound 16, (S)-2-Chloro-N-{1-[2-(4-methoxy-phenylamino)-ethylcarbamoyl]-2-phenyl-ethyl}-3-methyl-benzamide]	< 1	+ (+, >10)
COc1ccc(NCCNC(=O)[C@H](Cc2ccc(Oc3cc(Cl)cc(Cl)c3)cc2)NC(=O)c2cccc(C)c2)cc1 [Compound 18, (S)-N-{2-[4-(3,5-Dichloro-phenoxy)-phenyl]-1-[2-(4-methoxy-phenylamino)-ethylcarbamoyl]-ethyl}-3-methyl-benzamide]	< 10	+ (+, >10)
CS(=O)(=O)c1ccc(C(=O)N[C@@H](CC2CCCCC2)C(=O)NCCNc2ccc(OC(F)(F)F)cc2)cc1 [Compound 19, N-(S)-{2-cyclohexyl-1-[2-(4-trifluoromethoxy-phenylamino)-ethylcarbamoyl]-ethyl}-4-methanesulfonyl-benzamide]	< 1	+ (+, >10)
COc1ccc(NCCNC(=O)[C@H](Cc2ccccc2)NC(=O)c2cc(C)c(OCc3ccccc3)c(C)c2)cc1 [Compound 20, (S)-4-Benzyloxy-N-{1-[2-(4-methoxy-phenylamino)-ethylcarbamoyl]-2-phenyl-ethyl}-3,5-dimethyl-benzamide]	< 1	++ (++, >100)
(S)-3-Bromo-N-{1-[2-(4-methoxy-phenylamino)-ethylcarbamoyl]-2-phenyl-ethyl}-4-methyl-benzamide [Compound 24]	–	+ (+, >10)

Second part, the molecule after the results:

Ki (Cathepsin S) [µM]	Selectivity for Cat. S over Cat. K (Cathepsin K)	Molecule
< 0.1	++ (++, >100)	O=C(N[C@@H](CC1CCCCC1)C(=O)NCCNc1ccc(F)cc1)C(F)c1ccccc1 (mixture of isomers) [Compound 86, 3-Cyclohexyl-2-(S)-(2-(R,S)-fluoro-2-phenyl-acetylamino)-N-[2-(4-fluoro-phenylamino)-ethyl]-propionamide]
< 0.1	++ (++, >100)	CC(C(=O)NC(CC1CCCCC1)C(=O)NCCNc1ccc(F)cc1)c1ccc(F)cc1 (mixture of isomers) [Compound 320, N-(S)-{2-cyclohexyl-1-[2-(4-fluoro-phenylamino)-ethylcarbamoyl]-ethyl}-2-(R,S)-(4-fluoro-phenyl)-propionamide]
< 0.1	+++ (+++, >1000)	COc1ccc(NCCNC(=O)C(NC(=O)c2cccc(C)c2)c2ccc(Cl)cc2)cc1 (racemic) [Compound 8, (±)-N-((2-(4-methoxyphenylamino)ethylcarbamoyl)(4-chlorophenyl)methyl)-3-methylbenzamide]
< 1	+ (+, >10)	COc1ccc(NCCNC(=O)C(NC(=O)c2ccc(-c3cccc(C(F)(F)F)c3)o2)c2ccccc2)cc1 (racemic) [Compound 9, (±)-N-((2-(4-methoxyphenylamino)ethylcarbamoyl)(phenyl)-methyl)-5-(3-(trifluoromethyl)phenyl)furan-2-carboxamide]
< 1	++ (++, >100)	COc1ccc(NCCNC(=O)[C@H](CCc2ccccc2)NC(=O)c2ccc(-c3cccc(C(F)(F)F)c3)o2)cc1 [Compound 1, N-((S)-1-(2-(4-methoxyphenylamino)ethylcarbamoyl)-3-phenylpropyl)-5-(3-(trifluoromethyl)phenyl)furan-2-carboxamide]
< 0.1	+ (+, >10)	COc1ccc(NCCNC(=O)[C@H](Cc2ccccc2Cl)NC(=O)c2ccc(-c3cccc(C(F)(F)F)c3)o2)cc1 [Compound 2, N-((S)-1-(2-(4-methoxyphenylamino)ethylcarbamoyl)-2-(2-chlorophenyl)ethyl)-5-(3-(trifluoromethyl)phenyl)furan-2-carboxamide]
< 0.1	+++ (+++, >1000)	COc1ccc(NCCNC(=O)[C@H](Cc2cccc(Cl)c2)NC(=O)c2ccc(-c3cccc(C(F)(F)F)c3)o2)cc1 [Compound 3, N-((S)-1-(2-(4-methoxyphenylamino)ethylcarbamoyl)-2-(3-chlorophenyl)ethyl)-5-(3-(trifluoromethyl)phenyl)furan-2-carboxamide]
< 0.1	+++ (+++, >1000)	COc1ccc(NCCNC(=O)[C@H](Cc2ccc(Cl)cc2)NC(=O)c2ccc(-c3cccc(C(F)(F)F)c3)o2)cc1 [Compound 4, N-((S)-1-(2-(4-methoxyphenylamino)ethylcarbamoyl)-2-(4-chlorophenyl)ethyl)-5-(3-(trifluoromethyl)phenyl)furan-2-carboxamide]
< 0.1	++ (++, >100)	COc1ccc(NCCNC(=O)[C@H](CC2CCCC2)NC(=O)c2ccc(-c3cccc(C(F)(F)F)c3)o2)cc1 [Compound 6, N-((S)-1-(2-(4-methoxyphenylamino)ethylcarbamoyl)-2-cyclopentylethyl)-5-(3-(trifluoromethyl)phenyl)furan-2-carboxamide]
< 0.1	+++ (+++, >1000)	O=C(N[C@@H](CC1CCCCC1)C(=O)NCCNc1ccc(OC(F)F)cc1)c1ccc(-c2cccc(C(F)(F)F)c2)o1 [Compound 10, N-((S)-1-(2-(4-(difluoromethoxy)phenylamino)ethylcarbamoyl)-2-cyclohexylethyl)-5-(3-(trifluoromethyl)phenyl)furan-2-carboxamide]
< 0.1	+ (+, >10)	O=C(O)c1ccc(NCCNC(=O)[C@H](CC2CCCCC2)NC(=O)c2ccc(-c3cccc(C(F)(F)F)c3)o2)cc1 [Compound 11, 4-[2-(3-Cyclohexyl-2-(S)-{[5-(3-trifluoromethyl-phenyl)-furan-2-carbonyl]-amino}-propionylamino)-ethylamino]-benzoic acid]
< 0.1	+ (+, >10)	O=C(N[C@@H](CC1CCCCC1)C(=O)NCCNc1ccccc1C(=O)O)c1ccc(-c2cccc(C(F)(F)F)c2)o1 [Compound 12, 2-[2-(3-Cyclohexyl-2-(S)-{[5-(3-trifluoromethyl-phenyl)-furan-2-carbonyl]-amino}-propionylamino)-ethylamino]-benzoic acid]
< 0.1	+++ (+++, >1000)	C[C@@H](C(=O)N[C@@H](CCC1CCCCC1)C(=O)NCCNc1ccc(OC(F)(F)F)cc1)c1ccccc1 [Compound 13, 4-Cyclohexyl-2-(S)-(2-(R)-phenyl-propionylamino)-N-[2-(4-trifluoromethoxy-phenylamino)-ethyl]-butyramide]
< 0.1	++ (++, >100)	COc1ccc(CC(=O)NC(CC2CCCCC2)C(=O)NCCNc2ccc(OC(F)(F)F)cc2)cc1 (stereo not drawn) [Compound 17, 3-Cyclohexyl-2-[2-(4-methoxy-phenyl)-acetylamino]-N-[2-(4-trifluoromethoxy-phenylamino)-ethyl]-propionamide]
